US20170224692A1, “Combination Therapy” (Novartis AG, priority 2014, published 2017)
Values joined by “and” are separate entries in the source; they are usually repeats but may differ in a detail not shown here. Identical values can stand only once.

Legend:
Type in all cases: cell-based
CAL-33 cells = assay: 3 day CellTiter-Glo cell proliferation assay / dose matrix combination, CAL-33
Experimental: (§1) YD-38, CAL-33 and CCK-81 cells were cultured at 37° C. in a 5% CO2 incubator using the ATCC media (YD-38, RPMI-1640; CAL-33, DMEM; CCK-81, EMEM) supplemented with 10% FBS (Thermo scientific, SH30071.03). […] L-glutamine (Invitrogen, #25030-081) was also supplemented for CAL-33 media. Cells were passaged twice a week using TryPLE Express (Invitrogen, #12604-013).
(§2) Cell viability was determined by measuring cellular ATP content using the CellTiter-Glo®(CTG) luminescent cell viability assay (Promega #G7573) according to the manufacturer's protocol. Briefly, various number of cells (6000 for CAL-33, 4200 for YD-38 and 7000 for CCK-81) were seeded in 80 μl growth media per well in clear-bottom 96-well black plates (Costar, #3904) in triplicates. Cells were allowed to attach overnight prior to 72 hours of treatment with indicated compounds (serially-diluted where applicable) and/or 75 ng/ml HGF in a volume of 100 ul for HGF rescue experiment (+20 μl compound or HGF) or 140 ul for Chalice combination experiment (+20 μl compound A+20 μl compound B+20 ul media or HGF). At the end of the drug treatment, 100 ul CTG reagent was added to each well to lyse the cells, and luminescence signals were recorded in the Envision plate reader (Perkin Elmer).
(§3) In all combination assays, compounds were applied simultaneously. […] INC280 was subjected to a 7 doses 3× serial dilution with the highest dose at 1.5 μM and the lowest dose at about […]. The synergistic interaction was analyzed using Chalice software (CombinatoRx, Cambridge Mass.). Synergy was calculated by comparing a combination's response to those of its single agents, against the drug-with-itself dose-additive reference model and reported as Synergy Score (Lehar et al., 2009).
(§4) YD-38, CAL-33 and CCK-81 cells were treated in 96-well format for 3 days with HGF alone, Panitumumab alone, Panitumumab as a singal agent and Panitumumab with INC280 in the present or absent of HGF. (FIGS. 6 and 7). Cell viability was measured using the CellTiter-Glo assay. % viability was plotted as bar graphs with mean values and standard deviations from triplicates. […] Each data point represents averaged data from 3 wells +standard deviation, and the color spectrum also represents the level of the inhibition.

[1] = system: YD-38, CAL-33 and CCK-81 cells; assay: 3 day CellTiter-Glo proliferation / dose matrix combination, statements over all three cell lines
Experimental: Cell viability was determined by measuring cellular ATP content using the CellTiter-Glo®(CTG) luminescent cell viability assay (Promega #G7573) according to the manufacturer's protocol. Briefly, various number of cells (6000 for CAL-33, 4200 for YD-38 and 7000 for CCK-81) were seeded in 80 μl growth media per well in clear-bottom 96-well black plates (Costar, #3904) in triplicates. […] At the end of the drug treatment, 100 ul CTG reagent was added to each well to lyse the cells, and luminescence signals were recorded in the Envision plate reader (Perkin Elmer).
In all combination assays, compounds were applied simultaneously. […] The synergistic interaction was analyzed using Chalice software (CombinatoRx, Cambridge Mass.). Synergy was calculated by comparing a combination's response to those of its single agents, against the drug-with-itself dose-additive reference model and reported as Synergy Score (Lehar et al., 2009).
YD-38, CAL-33 and CCK-81 cells were treated in 96-well format for 3 days with HGF alone, Panitumumab alone, Panitumumab as a singal agent and Panitumumab with INC280 in the present or absent of HGF. […] Cell viability was measured using the CellTiter-Glo assay. % viability was plotted as bar graphs with mean values and standard deviations from triplicates. […]

YD-38 cells = assay: 3 day CellTiter-Glo cell proliferation assay / dose matrix combination, YD-38
Experimental: as §1, §2, §3, §4

CCK-81 cells = assay: 3 day CellTiter-Glo cell proliferation assay / dose matrix combination, CCK-81
Experimental: as §1, §2, §3, §4

[2] = INC280 single agent, dose matrix
[3] = co-treatment with 500 nM INC280, 100 nM Cetuximab, 75 ng/ml HGF
[4] = addition of 75 ng/ml HGF together with antibody

CNC(=O)c1ccc(-c2cnc3ncc(Cc4ccc5ncccc5c4)n3n2)cc1F [INC280, 2-fluoro-N-methyl-4-[(7-quinolin-6-yl-methyl)-imidazo[1,2-b]triazin-2-yl]benzamide]
anti-proliferation effect, single agent (CAL-33 cells; [2]): no anti-proliferation effect | block of the HGF rescue of Cetuximab effect (CAL-33 cells; [3]): completely blocked | INC280 concentration that re-sensitized HGF-treated cells to Cetuximab (CAL-33 cells; presence of HGF, dose matrix): 18 nM | anti-proliferation effect, single agent ([1]; INC280 single agent, regardless of HGF addition): little or no anti-proliferation effect | INC280 concentration that re-sensitized cells to Cetuximab ([1]; presence of HGF): 18 nM | anti-proliferation effect, single agent (YD-38 cells; [2]): no anti-proliferation effect | block of the HGF rescue of Cetuximab effect (YD-38 cells; [3]): completely blocked | INC280 concentration that re-sensitized HGF-treated cells to Cetuximab (YD-38 cells; presence of HGF, dose matrix): 18 nM | inhibition at 1.5 µM (CCK-81 cells; INC280 at 1.5 μM, presence of HGF, read-out: growth inhibition, single agent): ~20% | block of the HGF rescue of Cetuximab effect (CCK-81 cells; [3]): fully blocked | INC280 concentration that re-sensitized HGF-treated cells to Cetuximab (CCK-81 cells; presence of HGF, dose matrix): 18 nM

HGF: Recombinant HGF (R&D Systems, 294-HG-005/CF), ligand activating MET [reference compound]
growth-promoting effect by HGF alone (CAL-33 cells; 75 ng/ml HGF alone): ~16% | growth-stimulating effect of HGF alone (YD-38 cells; 75 ng/ml HGF alone): no growth-stimulating effect | growth-stimulating effect of HGF alone (CCK-81 cells; 75 ng/ml HGF alone): ~19% and ~20%

Panitumumab: fully human monoclonal antibody specific to the epidermal growth factor receptor [reference compound]
HGF rescue of the anti-proliferation effect of the EGFR antibody (CAL-33 cells; [4]): rescued | HGF rescue of the anti-proliferation effect of the EGFR antibody (YD-38 cells; [4]): rescued | HGF rescue of the anti-proliferation effect of the EGFR antibody (CCK-81 cells; [4]): rescued
